“Also recorded” adds a separate entry of the source. Ends that are not written are not given here.
What was measured:
Type in all cases: cell-based
bone sialoprotein (BSP) = assay: Osteoblast differentiation marker mRNA expression (PCR), BSP; settings: MC3T3-E1 cells, 10 or 50 μg/ml peptide, two days
Description: (§1) MC3T3-E1 cells were treated with 10 or 50 μg/ml of the peptides synthesized in synthetic example 1 to induce the differentiation for two days, and tests for verifying the mRNA expression of osteoblast differentiation markers, such as osteocalcin (OCN), osteoprotegerin (OPG), bone sialoprotein (BSP), and osteopontin (OPN), were conducted. Target-specific primer sequences used in PCR were as follows: OCN forward primer sequence, [NT] (SEQ ID NO:15) and OCN reverse primer sequence, [NT] (SEQ ID NO:16) (annealing temperature, 60° C.); OPG forward primer sequence, [NT] (SEQ ID NO:17) and OPG reverse primer sequence, [NT] (SEQ ID NO:18) (annealing temperature, 60° C.); BSP forward primer sequence, [NT] (SEQ ID NO:19) and BSP reverse primer sequence, [NT] (SEQ ID NO:20) (annealing temperature, 60° C.); OPN forward primer sequence, [NT] ID NO:21) and OPN reverse primer sequence, [NT] ID NO:22) (annealing temperature, 50° C.). […] Therefore, the peptides of the present invention can promote osteoblast differentiation by increasing the genetic expressions of OCN, OPG, BSP, and OPN, which are osteoblast differentiation markers.

osteoprotegerin (OPG) = assay: Osteoblast differentiation marker mRNA expression (PCR), OPG; settings: MC3T3-E1 cells, 10 or 50 μg/ml peptide, two days
Description: as §1

pSmad1/5/8 = assay: Osteogenic differentiation signal, Smad1/5/8 phosphorylation, western blotting; settings: MC3T3-E1 cells, serum-starved 24 hours, 10 μg/ml peptide, 30 minutes
Description: In order to verify whether pSmad1/5/8, which is a signal involved in osteogenic differentiation, was activated by the present peptides, MC3T3-E1 cells were dispensed into 6-well plates at 2×10^5 cells, and then cultured for 24 hours under the conditions of 37° C. and 5% CO2. After 24 hours, the medium was changed with a serum-free medium, and then the cells were starved for 24 hours, treated with the 10 μg/ml peptides or 50 ng/ml BMP2, used as a positive control, for 30 minutes, washed with PBS, and dissolved in a lysis buffer, thereby obtaining proteins, which were then subjected to western blotting.

osteocalcin (OCN) = assay: Osteoblast differentiation marker mRNA expression (PCR), OCN; settings: MC3T3-E1 cells, 10 or 50 μg/ml peptide, two days
Description: as §1

osteopontin (OPN) = assay: Osteoblast differentiation marker mRNA expression (PCR), OPN; settings: MC3T3-E1 cells, 10 or 50 μg/ml peptide, two days
Description: as §1

Raw264.7 cells = assay: Osteoclast differentiation inhibition, TRAP staining; settings: 10 ng/ml RANKL, 50 ng/ml TNF-α, 1 or 10 μg/ml peptide, five days
Description: In order to analyze the IL-3-like action and the inhibitory action of the peptides of SEQ ID NO: 1 and SEQ ID NO: 2, synthesized in synthetic example 1, TRAP staining was conducted using Raw264.7 strain differentiable into osteoclasts while referring to methods, such as tartrate-resistant acid phosphatase staining (Rizzino, et al. Cancer Res. 48:4266(1988)).
Raw264.7 cell lines (ATCC) were cultured in Dulbecco's modified Eagle's medium (DMEM, Gibco, U.S.A.) supplemented with 10% fetal bovine serum (FBS, Sigma) using each 250 ml-flask for tissue culture. The cultured cell lines were carefully detached from the bottom of the culture container using a pipette, followed by centrifugation, to obtain only cell precipitates. The cell precipitates were re-suspended in DMEM culture medium supplemented with 10% FBS, and then added to a […] for tissue culture plate at 1×10^4 cells per each well. For the induction of differentiation, the blank sample and RAW264.7 cells were treated with 10 ng/ml RANKL, 50 ng/ml TNF-α, and 1 μg/ml or 10 μg/ml synthesized peptides dissolved in 10% distilled water in a sterile state, […] After 72 hours, the medium was changed with the same culture liquid, and then the blank sample and the cells were treated with 10 ng/ml RANKL, 50 ng/ml TNF-α, and 1 μg/ml or 10 μg/ml synthesized peptides, and then cultured under the same conditions for 48 hours. […]

TRAP = TRAP activity in differentiated Raw264.7 cells, absorbance 405 nm; settings: 10 ng/ml RANKL, 50 ng/ml TNF-α, 1 or 10 μg/ml peptide, five days
Description: Raw264.7 cells were treated in combination with 10 ng/ml RANKL, 50 ng/ml TNF-α, or the 1 or 10 μg/ml peptide synthesized in synthetic example 1 to induce differentiation for five days, and then the inhibition degree of the activity of TRAP, an osteoclast differentiation marker, was tested. After culture, the culture liquid was removed, and then 100 μl of a lysis buffer (20 mM tris buffer, 3% triton X-100) was added to disrupt cell walls. A reaction solution is prepared from 500 μl of a citrate solution (18 mM citric acid, 9 mM sodium chloride, 12 mM surfactant; pH 3.5), 50 μl of a tartrate solution, and 500 μl of a 20 mM phosphate substrate. 100 μl of the lysate and 100 μl of the reaction solution were added in the same amount, and then the reaction was conducted at 37° C. for 30 minutes. For colorimetric analysis, the absorbance was determined at 405 nm using a spectrophotometer. It was validated that, in cases where the treatment with the peptide of SEQ ID NO: 1 or SEQ ID NO: 2 together with RANKL and TNF-α, the peptides inhibited the activity of TRAP, which is an osteoclast differentiation marker, in a concentration-dependent manner (FIGS. 4a and 4b).

RRKLTFYLKTLE [SEQ ID NO: 2, IL-3-derived synthetic peptide, 12 amino acids]
mRNA level of bone sialoprotein (BSP) (bone sialoprotein (BSP)): increased | mRNA level of osteoprotegerin (OPG) (osteoprotegerin (OPG)): increased | phosphorylation of Smad1/5/8 (pSmad1/5/8): led to the phosphorylation of Smad1/5/8; also recorded: increased | mRNA level of osteocalcin (OCN) (osteocalcin (OCN)): increased | mRNA level of osteopontin (OPN) (osteopontin (OPN)): increased | RANKL- and TNF-α-induced differentiation of Raw264.7 into osteoclasts (Raw264.7 cells): inhibit | activity of TRAP, osteoclast differentiation marker (TRAP): inhibited

NCSNMICEIITH (cysteine pairing not given here) [SEQ ID NO: 1, IL-3-derived synthetic peptide, 12 amino acids]
mRNA level of bone sialoprotein (BSP) (bone sialoprotein (BSP)): increased | mRNA level of osteoprotegerin (OPG) (osteoprotegerin (OPG)): increased | phosphorylation of Smad1/5/8 (pSmad1/5/8): led to the phosphorylation of Smad1/5/8; also recorded: increased | mRNA level of osteocalcin (OCN) (osteocalcin (OCN)): increased | mRNA level of osteopontin (OPN) (osteopontin (OPN)): increased | RANKL- and TNF-α-induced differentiation of Raw264.7 into osteoclasts (Raw264.7 cells): inhibit | activity of TRAP, osteoclast differentiation marker (TRAP): inhibited

From patent US10669312B2, “Peptide for suppressing osteoclast differentiation and use thereof” (CAREGEN CO., LTD., priority 2013, dated 2020)
